One may read the AC50 as the concentration at which the activity in the assay is half-maximal.

This assay has as its target PKM2 (Homo sapiens, UniProt P14618). The assay can be described thus: PKM2 Assay (activation, LDH-coupled, absorbance at 340 nm). Type of assay: biochemical. In short, it runs like this: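 Read-out was the 340 nm NADH absorbance change at 25 °C in an LDH-coupled system (PEP 0.15 mM, NADH 180 μM, ADP 0.7 mM to initiate) in 50 mM Tris pH 7.5, 100 mM KCl, 5 mM MgCl2. PKM2 at 50 ng/well was first preincubated with compound for 30 min at 4 °C. Activation given as AC50.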

Sequence of PKM2 (P14618 whole entry): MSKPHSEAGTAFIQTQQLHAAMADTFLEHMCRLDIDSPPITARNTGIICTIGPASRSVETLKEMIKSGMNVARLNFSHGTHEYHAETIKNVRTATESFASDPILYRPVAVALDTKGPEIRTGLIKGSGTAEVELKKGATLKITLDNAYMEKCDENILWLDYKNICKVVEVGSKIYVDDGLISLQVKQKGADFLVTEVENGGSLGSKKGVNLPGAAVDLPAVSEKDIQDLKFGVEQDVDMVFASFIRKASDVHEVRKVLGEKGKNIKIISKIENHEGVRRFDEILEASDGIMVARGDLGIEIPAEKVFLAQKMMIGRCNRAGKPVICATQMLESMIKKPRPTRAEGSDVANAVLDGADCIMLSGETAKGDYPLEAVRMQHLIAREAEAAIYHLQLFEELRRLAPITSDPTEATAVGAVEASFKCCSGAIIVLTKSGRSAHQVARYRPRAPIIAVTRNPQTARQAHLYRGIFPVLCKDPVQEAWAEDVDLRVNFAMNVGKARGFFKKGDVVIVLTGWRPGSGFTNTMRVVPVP

The molecule `C[C@H]1CN(CC2CCC2)CCN1C(=O)c1ccc(NS(=O)(=O)c2cccc3cccnc23)cc1` [Compound 207, (S)—N-(4-(4-(cyclobutylmethyl)-2-methylpiperazine-1-carbonyl)phenyl)quinoline-8-sulfonamide] returned an AC50 (Table 4) of 100 to 500 nM.

Turning to `O=C(c1ccc(NS(=O)(=O)c2cccc3cccnc23)nc1)N1CCN(Cc2cc(F)cc(F)c2)CC1` [Compound 413, N-(5-(4-(3,5-difluorobenzyl)piperazine-1-carbonyl)pyridin-2-yl)quinoline-8-sulfonamide], the half-maximal activity concentration (AC50) (Table 5) is 100 to 500 nM.

On to `CC(c1cc(F)c(F)cc1F)N1CCN(C(=O)c2ccc(NS(=O)(=O)c3cccc4cccnc34)cc2)[C@H](C)C1` (stereo partly shown) [Compound 168], for which, for the setting “Table 4”, the AC50 fell in the range of 100 to 500 nM.

`O=C(c1ccc(NS(=O)(=O)c2cccc3cccnc23)cc1)N1C2CCC1CN(Cc1ccc(F)cc1)C2` [Compound 226, N-(4-(3-(4-fluorobenzyl)-3,8-diazabicyclo[3.2.1]octane-8-carbonyl)phenyl)quinoline-8-sulfonamide] had an AC50 (Table 4) of less than 100 nM.

`C[C@H]1CN(CC2CCOC2)CCN1C(=O)c1ccc(NS(=O)(=O)c2cccc3cccnc23)cc1Cl` (stereo partly drawn) [Compound 187, N-(3-chloro-4-((2S)-2-methyl-4-((tetrahydrofuran-3-yl)methyl)piperazine-1-carbonyl)phenyl)quinoline-8-sulfonamide] showed a concentration at half-maximal activity (AC50) (Table 4) of 100 to 500 nM.

On to `CC(C)OC(=O)N1[C@H](C)CN(C(=O)c2ccc(NS(=O)(=O)c3cccc4cccnc34)cc2)C[C@@H]1C` [Compound 106, (2S,6R)-isopropyl 2,6-dimethyl-4-(4-(quinoline-8-sulfonamido)benzoyl)piperazine-1-carboxylate], for which the concentration at half-maximal activity (AC50) (Table 4) fell in the range of 100 to 500 nM.

`O=C(c1cc(F)cc(F)c1)N1CCN(C(=O)c2ccc(NS(=O)(=O)c3cccc4cccnc34)c(OC(F)(F)F)c2)CC1` [Compound 326, N-(4-(4-(3,5-difluorobenzoyl)piperazine-1-carbonyl)-2-(trifluoromethoxy)phenyl)quinoline-8-sulfonamide] came in with an AC50 (Table 5) of 100 to 500 nM.

The molecule `O=C(c1ccc(NS(=O)(=O)c2cccc3cccnc23)cc1F)N1CCN(Cc2cc(F)cc(F)c2)CC1` [Compound 421, N-(4-(4-(3,5-difluorobenzyl)piperazine-1-carbonyl)-3-fluorophenyl)quinoline-8-sulfonamide] yielded a concentration at half-maximal activity (AC50) (Table 5) of less than 100 nM.

With `C[C@H]1CN(Cc2cc(F)c(F)cc2F)CCN1C(=O)c1ccc(NS(=O)(=O)c2cccc3cccnc23)cc1` [Compound 145, (S)—N-(4-(2-methyl-4-(2,4,5-trifluorobenzyl)piperazine-1-carbonyl)phenyl)quinoline-8-sulfonamide], the AC50 (Table 4) is less than 100 nM.

In the case of `CC(c1ccc(F)c(F)c1F)N1CCN(C(=O)c2ccc(NS(=O)(=O)c3cccc4cccnc34)cc2)CC1` (stereo not shown) [Compound 403, N-(4-(4-(1-(2,3,4-trifluorophenyl)ethyl)piperazine-1-carbonyl)phenyl)quinoline-8-sulfonamide], the half-maximal activity concentration (AC50) (Table 5) is less than 100 nM.

`O=C(c1ccc(NS(=O)(=O)c2cccc3cccnc23)c(OC(F)(F)F)c1)N1CCN(Cc2cn[nH]c2)CC1` [Compound 383] gave a concentration at half-maximal activity (AC50) (Table 5) of 100 to 500 nM.

As for `O=C(c1ccc(NS(=O)(=O)c2cccc3cccnc23)cc1)N1CC2CCC(C1)N2Cc1cc(F)cc(F)c1` [Compound 218, N-(4-(8-(3,5-difluorobenzyl)-3,8-diazabicyclo[3.2.1]octane-3-carbonyl)phenyl)quinoline-8-sulfonamide], the AC50 (Table 4) lay in the range of 100 to 500 nM.

As to `O=C(c1ccc(NS(=O)(=O)c2cccc3cccnc23)cc1)N1CCN(C2(c3ccccc3)CCCCC2)CC1` [Compound 407, N-(4-(4-(1-phenylcyclohexyl)piperazine-1-carbonyl)phenyl)quinoline-8-sulfonamide], the half-maximal activity concentration (AC50) (Table 5) is less than 100 nM.

As for `O=C(c1ccc(NS(=O)(=O)c2cccc3cccnc23)c(OC(F)(F)F)c1)N1CCN(CC2CCOC2)CC1` (stereo not shown) [Compound 302, N-(4-(4-((tetrahydrofuran-3-yl)methyl)piperazine-1-carbonyl)-2-(trifluoromethoxy)phenyl)quinoline-8-sulfonamide], the half-maximal activity concentration (AC50) (Table 5) was 500 to 1000 nM.

With `O=C(c1ccc(NS(=O)(=O)c2cccc3cccnc23)cc1F)N1CCN(CC2CCCCO2)CC1` (stereo not shown) [Compound 435, N-(3-fluoro-4-(4-((tetrahydro-2H-pyran-2-yl)methyl)piperazine-1-carbonyl)phenyl)quinoline-8-sulfonamide], where the note is “Table 5”, the AC50 was in the range of 100 to 500 nM.

Consider `COc1ccccc1N1CCN(C(=O)c2ccc(NS(=O)(=O)c3cccc4cccnc34)cc2)C(C)C1` (stereo not shown) [Compound 223, N-(4-(4-(2-methoxyphenyl)-2-methylpiperazine-1-carbonyl)phenyl)quinoline-8-sulfonamide], for which the AC50 (Table 4) is less than 100 nM.

Under “Table 4”, `C[C@H]1CN(CC2CCCCC2)CCN1C(=O)c1ccc(NS(=O)(=O)c2cccc3cccnc23)cc1` [Compound 153, (S)—N-(4-(4-(cyclohexylmethyl)-2-methylpiperazine-1-carbonyl)phenyl)quinoline-8-sulfonamide] had an AC50 of 100 to 500 nM.

Take `O=C(c1ccc(NS(=O)(=O)c2cccc3cccnc23)cn1)N1CCN(CC2CC2)CC1` [Compound 415, N-(6-(4-(cyclopropylmethyl)piperazine-1-carbonyl)pyridin-3-yl)quinoline-8-sulfonamide]: under “Table 5”, the AC50 lay within 100 to 500 nM.

For `CC(c1ccc(F)cc1F)N1CCN(C(=O)c2ccc(NS(=O)(=O)c3cccc4cccnc34)cc2)[C@H](C)C1` (stereo partly drawn) [Compound 160, N-(4-((2R)-4-(1-(2,4-difluorophenyl)ethyl)-2-methylpiperazine-1-carbonyl)phenyl)quinoline-8-sulfonamide], the AC50 (Table 4) is less than 100 nM.

As for `O=C(c1ccc(NS(=O)(=O)c2cccc3cccnc23)cc1Cl)N1CCN(CC2CC2)CC1` [Compound 427, N-(3-chloro-4-(4-(cyclopropylmethyl)piperazine-1-carbonyl)phenyl)quinoline-8-sulfonamide], the AC50 (Table 5) was less than 100 nM.

Under “Table 5”, `O=C(c1ccc(NS(=O)(=O)c2cccc3cccnc23)cn1)N1CCN(Cc2ccc(F)cc2)CC1` [Compound 416, N-(6-(4-(4-fluorobenzyl)piperazine-1-carbonyl)pyridin-3-yl)quinoline-8-sulfonamide] had an AC50 of 100 to 500 nM.

The molecule `COc1ccc(CN2CCN(C(=O)c3ccc(NS(=O)(=O)c4cccc5cccnc45)c(OC(F)(F)F)c3)CC2)cc1` [Compound 310, N-(4-(4-(4-methoxybenzyl)piperazine-1-carbonyl)-2-(trifluoromethoxy)phenyl)quinoline-8-sulfonamide] came in with a concentration at half-maximal activity (AC50) (Table 5) of 100 to 500 nM.

For the molecule `CC[C@H]1CN(C(C)c2cc(F)c(F)c(F)c2)CCN1C(=O)c1ccc(NS(=O)(=O)c2cccc3cccnc23)cc1` (stereo partly drawn) [Compound 162, N-(4-((2S)-2-ethyl-4-(1-(3,4,5-trifluorophenyl)ethyl)piperazine-1-carbonyl)phenyl)quinoline-8-sulfonamide], the AC50 (Table 4) is 100 to 500 nM.

With `O=C(c1ccc(NS(=O)(=O)c2cccc3cccnc23)cc1)N1CCN(C(=O)c2c[nH]cn2)CC1` [Compound 349, N-(4-(4-(1H-imidazole-4-carbonyl)piperazine-1-carbonyl)phenyl)quinoline-8-sulfonamide], the concentration at half-maximal activity (AC50) (Table 5) lay within 100 to 500 nM.

`O=C(c1ccc(NS(=O)(=O)c2cccc3cccnc23)cc1Cl)N1CCN(CC2CCCC2)CC1` [Compound 428, N-(3-chloro-4-(4-(cyclopentylmethyl)piperazine-1-carbonyl)phenyl)quinoline-8-sulfonamide] returned a concentration at half-maximal activity (AC50) (Table 5) of 100 to 500 nM.

The record behind these values is patent US8889667B2 (Agios Pharmaceuticals, Inc, priority 2010, dated 2014).
